Source: the supplement of paper PMC8671470

Experiments:
Conditions in all cases: 72 h
[1] = system: HL-60; assay: area under dose-response curve (viability, 1 nM-10 uM) (fraction (0-1)); higher = more sensitive
How it was run: (§1)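 HL-60 cells in RPMI 1640 with 10% FBS were rescreened against the full library on 384-well plates at five tenfold concentrations, 1–10,000 nM, in duplicate. Each screen was run with DMSO or 100 nM of one of three metabolic inhibitors, for 72 h at 37 °C, 5% CO2. Viability was read by CellTiter-Glo and normalised to DMSO and 10 μM proteasome-inhibitor wells. Where given, area under the curve came from four-parameter log-logistic fits (drc, PharmacoGx).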

[2] = system: KCL-22
How it was run: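 Fifteen myeloid leukaemia cell lines were seeded in RPMI 1640 at densities titrated to the linear growth range and placed in 384-well plates with acoustically pre-printed compounds at five tenfold doses from 1 to 10,000 nM, in duplicate. After 72 h at 37 °C with 5% CO2, luminescent ATP viability was normalised to vehicle and to a positive control at 10 µM, and curves were fitted with a four-parameter log-logistic model. The IC50 was obtained from these fits.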

[3] = system: K-562; assay: cell viability (% survival relative to DMSO control, bortezomib = 0%); higher = less cytotoxic
How it was run: (§2)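 Percent survival figures are means of duplicate wells. They were obtained by CellTiter-Glo luminescence after 10 AML and 5 CML cell lines spent 72 h at 37 °C with 5% CO2 in 384-well plates with compounds at 1, 10, 100, 1000 or 10000 nM. Vehicle was set to 100% and a 10 µM positive control to 0%.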

[4] = system: HL-60; assay: as above
How it was run: as §2

[5] = system: HEL; assay: as above
How it was run: as §2

[6] = system: SHI-1; assay: as above
How it was run: as §2

[7] = system: THP-1; assay: as above
How it was run: as §2

[8] = system: BV-173; assay: as above
How it was run: as §2

[9] = system: KG-1; assay: as above
How it was run: as §2

[10] = system: KU-812; assay: as above
How it was run: as §2

[11] = system: MOLM-13; assay: as above
How it was run: as §2

[12] = system: MV4-11; assay: as above
How it was run: as §2

[13] = system: LAMA-84; assay: as above
How it was run: as §2

[14] = system: ML-2; assay: as above
How it was run: as §2

[15] = system: KCL-22; assay: as above
How it was run: as §2

[16] = system: Mono-Mac-6; assay: as above
How it was run: as §2

[17] = system: NOMO-1; assay: as above
How it was run: as §2

[18] = system: HL-60; assay: cell viability (% survival relative to DMSO control); higher = less cytotoxic
How it was run: as §1

CCOP(=O)(OCC)C(=Cc1cc(C(C)(C)C)c(O)c(C(C)(C)C)c1)P(=O)(OCC)OCC
Conditions	area under dose-response curve, co-treatment: AZD3965 100 nM	area under dose-response curve, co-treatment: DMSO vehicle	area under dose-response curve, co-treatment: GSK2194069 100 nM	area under dose-response curve, co-treatment: pictilisib 100 nM	cell viability, 1 nM [%]	cell viability, 10 nM [%]	cell viability, 100 nM [%]	cell viability, 1000 nM [%]	cell viability, 10000 nM [%]
[1]	< 0.0301	< 0.0301	< 0.0301	< 0.0301	–	–	–	–	–
[3]	–	–	–	–	91.1	90.4	118	101	90.1
[4]	–	–	–	–	93.9	94.9	159	65.9	83.4
[5]	–	–	–	–	92.1	95.8	109	89.8	108
[6]	–	–	–	–	100	89.7	123	94.9	98.5
[7]	–	–	–	–	96.7	98.1	115	83.9	85.1
[8]	–	–	–	–	92.7	96.8	121	89.9	64.5
[9]	–	–	–	–	96.3	91.2	121	91.2	67
[10]	–	–	–	–	98.4	92.3	123	85.5	73.6
[11]	–	–	–	–	76	81.8	122	88.9	86.5
[12]	–	–	–	–	94.2	90.7	117	104	82
[13]	–	–	–	–	94.8	99.1	114	97.6	94.1
[14]	–	–	–	–	95.1	98.1	134	78.9	80
[15]	–	–	–	–	98.7	108	125	108	94
[16]	–	–	–	–	93.3	99.4	129	75.2	57.6
[17]	–	–	–	–	97	99.1	118	91.4	93.4

Conditions	IC50 (cell viability) [nM]
[2]	> 10000

cell viability [%], [18]
Conditions	0.001 µM	0.01 µM	0.1 µM	1 µM	10 µM
co-treatment: AZD3965 100 nM	95.9	101	109	101	98
co-treatment: DMSO vehicle	100	105	99.5	104	105
co-treatment: GSK2194069 100 nM	101	104	102	102	94.5
co-treatment: pictilisib 100 nM	96.4	99.31	107	94.9	103

COc1cc(/C=C/C(=O)N2CCC=CC2=O)cc(OC)c1OC [Piperlongumine]
Conditions	area under dose-response curve, co-treatment: AZD3965 100 nM	area under dose-response curve, co-treatment: DMSO vehicle	area under dose-response curve, co-treatment: GSK2194069 100 nM	area under dose-response curve, co-treatment: pictilisib 100 nM	cell viability, 1 nM [%]	cell viability, 10 nM [%]	cell viability, 100 nM [%]	cell viability, 1000 nM [%]	cell viability, 10000 nM [%]
[1]	0.131	0.134	0.156	0.153	–	–	–	–	–
[3]	–	–	–	–	102	91.5	106	77.3	0.672
[4]	–	–	–	–	92.7	100	102	85.7	0.441
[5]	–	–	–	–	90.1	111	103	97.5	-0.0957
[6]	–	–	–	–	100	98.3	106	89	0.583
[7]	–	–	–	–	103	93.9	101	88	-0.152
[8]	–	–	–	–	93.3	99.9	101	71.4	-0.383
[9]	–	–	–	–	98.4	102	93.1	98.3	4.3
[10]	–	–	–	–	94.6	110	94.9	92.2	3.51
[11]	–	–	–	–	98.6	87.6	99.5	75.7	0.668
[12]	–	–	–	–	95	90.4	89.7	44.4	-0.271
[13]	–	–	–	–	104	106	104	98.8	2.16
[14]	–	–	–	–	102	100	92.8	72.6	-0.133
[15]	–	–	–	–	92.3	109	90.3	93.5	1.29
[16]	–	–	–	–	94.3	107	98.7	86.5	1.58
[17]	–	–	–	–	94.9	103	105	100	0.949

Conditions	IC50 (cell viability) [nM]
[2]	2920

cell viability [%], [18]
Conditions	0.001 µM	0.01 µM	0.1 µM	1 µM	10 µM
co-treatment: AZD3965 100 nM	101	104	102	99.9	-0.192
co-treatment: DMSO vehicle	98.08	100.5	102.8	97.9	-0.533
co-treatment: GSK2194069 100 nM	101	102	104.6	87.9	-0.0941
co-treatment: pictilisib 100 nM	97.3	94.8	94.9	83.8	3.95
